Experimental findings from patent US20110190336A1, “AZABENZIMIDAZOLONES” (CARA THERAPEUTICS, INC., priority 2008, published 2011) are described below.

The target of this assay is T1, human DP2 receptor (Homo sapiens, UniProt Q9Y5Y4).
T1 construct: expressed in transfected cells; host or cells: CHO-K1 FLP-In (Invitrogen, catalog no. R758-07), stably transfected
T1 sequence (Q9Y5Y4 1-395): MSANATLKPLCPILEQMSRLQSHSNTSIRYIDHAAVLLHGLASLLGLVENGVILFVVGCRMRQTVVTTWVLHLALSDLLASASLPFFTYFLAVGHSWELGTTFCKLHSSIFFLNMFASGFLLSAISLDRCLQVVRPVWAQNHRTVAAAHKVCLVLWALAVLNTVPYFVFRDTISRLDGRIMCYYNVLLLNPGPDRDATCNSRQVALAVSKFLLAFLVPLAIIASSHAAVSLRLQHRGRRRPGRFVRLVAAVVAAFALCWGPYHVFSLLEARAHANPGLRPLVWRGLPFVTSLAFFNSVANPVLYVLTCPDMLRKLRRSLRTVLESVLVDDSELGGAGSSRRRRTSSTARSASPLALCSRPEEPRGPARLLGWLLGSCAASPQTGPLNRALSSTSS
As to the kind of experiment: Prostaglandin D2 binding inhibition assay (scintillation proximity assay, 3H PGD2, membranes of transfected CHO cells). The following applies: SPA, 5.5 nM 3H PGD2, CHO-K1 FLP-In human DP2 membranes; upper limit determinable 30 μM; read-out: IC50 ranges for inhibition of PGD2 binding to human DP2. The method, then: The ability of compounds to inhibit binding of prostaglandin D2 (PGD2) to the human DP2 receptor was measured using a scintillation proximity assay (SPA). Chinese Hamster Ovary FLP-In cell lines (CHO-K1 FLP-In, Invitrogen, catalog no. R758-07) were stably transfected with the human DP2 gene (Genebank: AY507142). Cell lines were grown in suspension in EX-CELL 302 CHO Serum-free medium (Sigma, catalog no. 14324C) supplemented with 1% Fetal Bovine Serum (Invitrogen no. 10099-141), 2 mM L-glutamine (Invitrogen, catalog no. 25030-081) and 0.5 mg/ml Hygromycin B (Invitrogen, catalog no. 10687-010). Cells were collected by centrifugation in a Beckman Coulter Allegra X-12R centrifuge at 150×g for 5 minutes at room temperature.
Membranes from transfected cells were isolated for binding assays. Cell pellets containing approximately 2×10^9 cells were resuspended in 35 ml of cold membrane homogenization buffer (10 mM Tris (Sigma, catalog no. T2663), 1 mM EDTA (Fluka BioChemika no. 03690), and 70 μl of protease inhibitor cocktail (Sigma, catalog no. P8340)). Cells were homogenized with 30 strokes of a dounce homogenizer (Kontes, catalog no. 885303-0040), and the solution centrifuged at 200×g for 10 minutes. The supernatant was transferred to a 50 ml Oakridge tube (Beckman, catalog no. 357000) and centrifuged in a Beckman Coulter Avanti J-26×PI centrifuge with a JA30.50 rotor at 81,000×g for 1 hour at 15° C. The pellet was resuspended in membrane storage buffer (50 mM Tris (Sigma, catalog no. T2663), 2.5 mM EDTA (Fluka BioChemika no. 03690), 5 mM magnesium chloride (Sigma, catalog no. M1028), 100 mg/ml sucrose (Sigma, catalog no. 50389) and a 1:500 dilution of protease inhibitor cocktail (Sigma, catalog no. P8340)) and the total protein was quantitated using a BCA protein measurement kit (Pierce, catalog no. 23225). Aliquots were frozen at −80° C. until used. Compounds were tested for their ability to inhibit PGD2 binding to the purified membranes. 5 μg of the purified membranes, 0.25 mg of wheat germ agglutinin PVT SPA beads (GE Healthcare, catalog no. RPNQ0060) and 5.5 nM of ^3H PGD2 (PerkinElmer, catalog no. NET-616) were mixed in assay buffer ((50 mM Tris (Sigma, catalog no. T2663), 10 mM magnesium chloride (Sigma, catalog no. M1028), 100 mM sodium chloride (Sigma, catalog no. S6546) and 0.1% bovine serum albumin (Sigma, catalog no. A2153)). Using a Multidrop bulk dispenser, 75 μl of the assay mixture was dispensed in Optiplates (PerkinElmer, catalog no. 6007299) containing the compounds to be tested. After a 60 minute incubation period at room temperature, the plates were read on a PerkinElmer Topcount NXT HTS, and individual wells were quantitated as counts per minute (CPM). Data were expressed as a percent of the difference between the maximum and minimum responses. IC50 values (the concentration of compound producing 50% of the maximal response) were determined using a two-parameter non-linear regression algorithm analyzed using CambridgeSoft Bioassay software. Table 2 gives the range of IC50 values for claimed compounds in the binding assay.
(In general: SPA uses beads or plates that emit light when radiolabelled molecules are held near them.)

Each structure is given as a SMILES string.

On to `Cc1cc(S(=O)(=O)N2CCC(n3c(=O)n(CC(=O)O)c4cccnc43)CC2)c(C)s1` [Compound 76, 2-(3-(1-(2,5-dimethylthiophen-3-ylsulfonyl)piperidin-4-yl)-2-oxo-2,3-dihydro-1H-imidazo[4,5-b]pyridin-1-yl)acetic acid], for which the IC50 lay in the range of 1000 to 10000 nM.

`O=C(O)Cn1c(=O)n(C2CCN(S(=O)(=O)c3ccc(Oc4ccccc4)cc3)CC2)c2ncccc21` [Compound 77, 2-(2-oxo-3-(1-(4-phenoxyphenyl-sulfonyl)piperidin-4-yl)-2,3-dihydro-1H-imidazo[4,5-b]pyridin-1-yl)acetic acid]: the IC50 was 1000 to 10000 nM.

In the case of `COc1cccc(S(=O)(=O)N2CCC(n3c(=O)n(CC(=O)O)c4cccnc43)CC2)c1` [Compound 78, 2-(3-(1-(3-methoxyphenyl-sulfonyl)piperidin-4-yl)-2-oxo-2,3-dihydro-1H-imidazo[4,5-b]pyridin-1-yl)acetic acid], the IC50 fell in the range of 1000 to 10000 nM.

Take `O=C(O)Cn1c(=O)n(C2CCN(S(=O)(=O)c3ccccc3)CC2)c2ncccc21` [Compound 79, 2-(2-oxo-3-(1-(phenylsulfonyl)piperidin-4-yl)-2,3-dihydro-1H-imidazo[4,5-b]pyridin-1-yl)acetic acid]: the IC50 lay in the range of 1000 to 10000 nM.

On to `O=C(O)Cn1c(=O)n(C2CCN(S(=O)(=O)c3ccc(Cl)s3)CC2)c2ncccc21` [Compound 80, 2-(3-(1-(5-chlorothiophen-2-yl-sulfonyl)piperidin-4-yl)-2-oxo-2,3-dihydro-1H-imidazo[4,5-b]pyridin-1-yl)acetic acid], for which the IC50 lay in the range of 1000 to 10000 nM.

In the case of `O=C(O)Cn1c(=O)n(C2CCN(S(=O)(=O)c3ccc(-c4ccccc4)cc3)CC2)c2ncccc21` [Compound 81, 2-(3-(1-(biphenyl-4-ylsulfonyl)piperidin-4-yl)-2-oxo-2,3-dihydro-1H-imidazo[4,5-b]pyridin-1-yl)acetic acid], the IC50 lay within 1000 to 10000 nM.

Take `O=C(O)Cn1c(=O)n(C2CCN(S(=O)(=O)c3cc(Cl)ccc3Cl)CC2)c2ncccc21` [Compound 82, 2-(3-(1-(2,5-dichlorophenylsulfonyl)piperidin-4-yl)-2-oxo-2,3-dihydro-1H-imidazo[4,5-b]pyridin-1-yl)acetic acid]: the IC50 was less than 1000 nM.

On to `O=C(O)Cn1c(=O)n(C2CCN(S(=O)(=O)c3cc(F)c(Br)cc3F)CC2)c2ncccc21` [Compound 83, 2-(3-(1-(4-bromo-2,5-difluorophenyl-sulfonyl)piperidin-4-yl)-2-oxo-2,3-dihydro-1H-imidazo[4,5-b]pyridin-1-yl)acetic acid], for which the IC50 is less than 1000 nM.

As for `O=C(O)Cn1c(=O)n(C2CCN(S(=O)(=O)c3cc(Cl)cc(Cl)c3)CC2)c2ncccc21` [Compound 84, 2-(3-(1-(3,5-dichlorophenyl-sulfonyl)piperidin-4-yl)-2-oxo-2,3-dihydro-1H-imidazo[4,5-b]pyridin-1-yl)acetic acid], the IC50 fell in the range of 1000 to 10000 nM.

For `O=C(O)Cn1c(=O)n(C2CCN(S(=O)(=O)c3ccccc3C(F)(F)F)CC2)c2ncccc21` [Compound 85, 2-(2-oxo-3-(1-(2-(trifluoromethyl)phenylsulfonyl)piperidin-4-yl)-2,3-dihydro-1H-imidazo[4,5-b]pyridin-1-yl)acetic acid], the IC50 is less than 1000 nM.

For the compound `O=C(O)Cn1c(=O)n(C2CCN(S(=O)(=O)c3cc(Cl)c(F)cc3F)CC2)c2ncccc21` [Compound 86, 2-(3-(1-(5-chloro-2,4-difluorophenyl-sulfonyl)piperidin-4-yl)-2-oxo-2,3-dihydro-1H-imidazo[4,5-b]pyridin-1-yl)acetic acid], the IC50 is less than 1000 nM.

Consider `O=C(O)Cn1c(=O)n(C2CCN(S(=O)(=O)c3ccc(Br)cc3F)CC2)c2ncccc21` [Compound 87, 2-(3-(1-(4-bromo-2-fluorophenyl-sulfonyl)piperidin-4-yl)-2-oxo-2,3-dihydro-1H-imidazo[4,5-b]pyridin-1-yl)acetic acid], for which the IC50 was less than 1000 nM.

Consider `O=C(O)Cn1c(=O)n(C2CCN(S(=O)(=O)c3ccc(F)c(Cl)c3)CC2)c2ncccc21` [Compound 88, 2-(3-(1-(3-chloro-4-fluorophenyl-sulfonyl)piperidin-4-yl)-2-oxo-2,3-dihydro-1H-imidazo[4,5-b]pyridin-1-yl)acetic acid], for which the IC50 lay in the range of 1000 to 10000 nM.

Take `COc1ccc(S(=O)(=O)N2CCC(n3c(=O)n(CC(=O)O)c4cccnc43)CC2)cc1` [Compound 89, 2-(3-(1-(4-methoxyphenylsulfonyl)piperidin-4-yl)-2-oxo-2,3-dihydro-1H-imidazo[4,5-b]pyridin-1-yl)acetic acid]: the IC50 is 1000 to 10000 nM.

As for `CS(=O)(=O)c1ccc(S(=O)(=O)N2CCC(n3c(=O)n(CC(=O)O)c4cccnc43)CC2)cc1` [Compound 90, 2-(3-(1-(4-(methylsulfonyl)phenyl-sulfonyl)piperidin-4-yl)-2-oxo-2,3-dihydro-1H-imidazo[4,5-b]pyridin-1-yl)acetic acid], the IC50 is greater than 30000 nM.

Take `O=C(O)Cn1c(=O)n(C2CCN(S(=O)(=O)c3cc(F)c(Cl)cc3F)CC2)c2ncccc21` [Compound 91, 2-(3-(1-(4-chloro-2,5-difluoro-phenylsulfonyl)piperidin-4-yl)-2-oxo-2,3-dihydro-1H-imidazo[4,5-b]pyridin-1-yl)acetic acid]: the IC50 is less than 1000 nM.

Regarding `O=C(O)Cn1c(=O)n(C2CCN(S(=O)(=O)c3cc(F)c(F)cc3F)CC2)c2ncccc21` [Compound 92, 2-(2-oxo-3-(1-(2,4,5-trifluoro-phenylsulfonyl)piperidin-4-yl)-2,3-dihydro-1H-imidazo[4,5-b]pyridin-1-yl)acetic acid], the IC50 is 1000 to 10000 nM.

`O=C(O)Cn1c(=O)n(C2CCN(S(=O)(=O)c3ccc(F)cc3F)CC2)c2ncccc21` [Compound 93, 2-(3-(1-(2,4-difluorophenyl-sulfonyl)piperidin-4-yl)-2-oxo-2,3-dihydro-1H-imidazo[4,5-b]pyridin-1-yl)acetic acid]: the IC50 is less than 1000 nM.

As to `Cc1ccccc1S(=O)(=O)N1CCC(n2c(=O)n(CC(=O)O)c3cccnc32)CC1` [Compound 94, 2-(2-oxo-3-(1-(o-tolylsulfonyl)piperidin-4-yl)-2,3-dihydro-1H-imidazo[4,5-b]pyridin-1-yl)acetic acid], the IC50 was less than 1000 nM.

In the case of `Cc1cc(S(=O)(=O)N2CCC(n3c(=O)n(CC(=O)O)c4cccnc43)CC2)ccc1F` [Compound 95, 2-(3-(1-(4-fluoro-3-methylphenylsulfonyl)piperidin-4-yl)-2-oxo-2,3-dihydro-1H-imidazo[4,5-b]pyridin-1-yl)acetic acid], the IC50 was 1000 to 10000 nM.

For the compound `Cc1c(F)cccc1S(=O)(=O)N1CCC(n2c(=O)n(CC(=O)O)c3cccnc32)CC1` [Compound 96, 2-(3-(1-(3-fluoro-2-methylphenylsulfonyl)piperidin-4-yl)-2-oxo-2,3-dihydro-1H-imidazo[4,5-b]pyridin-1-yl)acetic acid], the IC50 was less than 1000 nM.

As for `COc1ccccc1S(=O)(=O)N1CCC(n2c(=O)n(CC(=O)O)c3cccnc32)CC1` [Compound 97, 2-(3-(1-(2-methoxyphenylsulfonyl)piperidin-4-yl)-2-oxo-2,3-dihydro-1H-imidazo[4,5-b]pyridin-1-yl)acetic acid], the 50% inhibitory concentration (IC50) was in the range of 1000 to 10000 nM.

A word on the IC50: it is the concentration at which inhibition is half-maximal.
